Measurements taken from patent US7858620B2, “Cyanoisoquinoline” (H. Lundbeck A/S, priority 2007, dated 2010).

Columns and labels:
[1] = target: T1, PDE10A enzyme (Homo sapiens, UniProt Q9Y233); assay: PDE10A inhibition assay, SPA; type: biochemical; conditions: column head 2,1334003; unit inferred, nM
T1 construct: made in house; host or cells: E. coli BL21(DE3)
Protocol: Active PDE10A enzyme is prepared in a number of ways for use in PDE assays (Loughney, K. et al. Gene 1999, 234, 109-117; Fujishige, K. et al. Eur J Biochem. 1999, 266, 1118-1127 and Soderling, S. et al. Proc. Natl. Acad. Sci. 1999, 96, 7071-7076). PDE10A can be expressed as full-length proteins or as truncated proteins, as long as they express the catalytic domain. PDE10A can be prepared in different cell types, for example insect cells or E. coli. An example of a method to obtain catalytically active PDE10A is as follows: The catalytic domain of human PDE10A (amino acids 440-779 from the sequence with accession number NP 006652) is amplified from total human brain total RNA by standard RT-PCR and is cloned into the BamH1 and Xho1 sites of the pET28a vector (Novagen). Expression in coli is performed according to standard protocols. Briefly, the expression plasmids are transformed into the BL21(DE3) E. coli strain, and 50 mL cultures inoculated with the cells allowed to grow to an OD600 of 0.4-0.6 before protein expression is induced with 0.5 mM IPTG. Following induction, the cells are incubated overnight at room temperature, after which the cells are collected by centrifugation. Cells expressing PDE10A are resuspended in 12 mL (50 mM TRIS-HCl-pH8.0, 1 mM MgCl2 and protease inhibitors). The cells are lysed by sonication, and after all cells are lysed, TritonX100 is added according to Novagen protocols.
PDE10A and Pde3A assays can for example be performed as follows: PDE10A and Pde3A assays are performed in 60 uL samples containing a fixed amount of the relevant PDE enzyme (sufficient to convert 20-25% of the cyclic nucleotide substrate), a buffer (50 mM HEPES7.6; 10 mM MgCl2; 0.02% Tween20), 0.1 mg/ml BSA, 225 pCi of ^3H-labelled cyclic nucleotide substrate, tritium labeled cAMP to a final concentration of 5 nM and varying amounts of inhibitors. Reactions are initiated by addition of the cyclic nucleotide substrate, and reactions are allowed to proceed for one hr at room temperature before being terminated through mixing with 15 uL 8 mg/mL yttrium silicate SPA beads (Amersham). The beads are allowed to settle for one hr in the dark before the plates are counted in a Wallac 1450 Microbeta counter. The measured signal can be converted to activity relative to an uninhibited control (100%) and IC50 values can be calculated using the Xlfit extension to EXCEL.

[2] = test system: catalepsy in rats; conditions: cited from earlier work
[3] = test system: amphetamine induced hyperactivity; conditions: rat, in vivo; cited from earlier work
[4] = test system: PCP induced hyperactivity in rats; conditions: cited from earlier work

T1 sequence (Q9Y233 716-1055): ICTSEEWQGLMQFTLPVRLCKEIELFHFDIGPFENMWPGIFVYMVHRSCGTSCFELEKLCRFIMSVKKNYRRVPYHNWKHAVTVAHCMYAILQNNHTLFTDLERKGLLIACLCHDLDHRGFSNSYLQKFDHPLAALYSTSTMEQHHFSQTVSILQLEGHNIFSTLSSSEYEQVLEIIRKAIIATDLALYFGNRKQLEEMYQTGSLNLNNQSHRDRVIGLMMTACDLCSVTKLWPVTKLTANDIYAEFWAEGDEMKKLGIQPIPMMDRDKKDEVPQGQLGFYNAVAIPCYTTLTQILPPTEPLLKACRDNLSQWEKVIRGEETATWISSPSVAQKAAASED

Row | SMILES | IC50 [1] | other results
1 | COc1cc2c(C#N)cnc(N3CCNC(c4cc(C)c(OC)c(C)c4)C3)c2cc1OC (centres unmarked) [Compound 65, 6,7-Dimethoxy-1-[3-(4-methoxy-3,5-dimethyl-phenyl)-piperazin-1-yl]-isoquinoline-4-carbonitrile] | 1700 nM | 
2 | COc1cc2c(C#N)cnc(N3CCOC(c4ccc(C)cc4)C3)c2cc1OC (centres unmarked) [Compound 19, 6,7-Dimethoxy-1-(2-p-tolyl-morpholin-4-yl)-isoquinoline-4-carbonitrile] | 580 nM | 
3 | COc1cc2c(N3CCNC(c4ccc5c(c4)OCO5)C3)nc(C)c(C#N)c2cc1OC (centres unmarked) [Compound 43, 1-(3-Benzo[1,3]dioxol-5-yl-piperazin-1-yl)-6,7-dimethoxy-3-methyl-isoquinoline-4-carbonitrile] | 510 nM | 
4 | COc1cc2c(C#N)cnc(N3CCNC(c4cc(Cl)ccc4Cl)C3)c2cc1OC (centres unmarked) [Compound 14, 1-[3-(2,5-Dichloro-phenyl)-piperazin-1-yl]-6,7-dimethoxy-isoquinoline-4-carbonitrile] | 650 nM | 
5 | COc1cc(OC)cc(C2CN(c3nc(C)c(C#N)c4cc(OC)c(OC)cc34)CCN2)c1 (centres unmarked) [Compound 35, 1-[3-(3,5-Dimethoxy-phenyl)-piperazin-1-yl]-6,7-dimethoxy-3-methyl-isoquinoline-4-carbonitrile] | 710 nM | 
6 | COc1cc2c(N3CCNC(c4ccc(F)cc4)C3)nc(C)c(C#N)c2cc1OC (centres unmarked) [Compound 41, 1-[3-(4-Fluoro-phenyl)-piperazin-1-yl]-6,7-dimethoxy-3-methyl-isoquinoline-4-carbonitrile] | 1200 nM | 
7 | COc1ccc(Cc2nccc3cc(OC)c(OC)cc23)cc1OC [Papaverin] |  | catalepsy on its own ([2]; alone): did not cause catalepsy on its own; effect on cataleptic effect of haloperidol ([2]; with D2 receptor antagonist haloperidol): potentiated the cataleptic effect; reduction of amphetamine induced hyperactivity [3]: insignificant; hyperactivity induced by PCP [4]: reduced hyperactivity
8 | COc1cc2c(N3CCNC(c4ccc(C)cc4)C3)nc(C)c(C#N)c2cc1OC (centres unmarked) [Compound 31, 6,7-Dimethoxy-3-methyl-1-(3-p-tolyl-piperazin-1-yl)-isoquinoline-4-carbonitrile] | 1000 nM | 
9 | CCOc1ccc(C2CN(c3ncc(C#N)c4cc(OC)c(OC)cc34)CCN2)c(C)c1 (centres unmarked) [Compound 69, 1-[3-(4-Ethoxy-2-methyl-phenyl)-piperazin-1-yl]-6,7-dimethoxy-isoquinoline-4-carbonitrile] | 790 nM | 
10 | COc1cc2c(C#N)cnc(N3CCNC(c4ccc(OC(C)C)cc4)C3)c2cc1OC (centres unmarked) [Compound 57, 1-[3-(4-Isopropoxy-phenyl)-piperazin-1-yl]-6,7-dimethoxy-isoquinoline-4-carbonitrile] | 530 nM | 
11 | COc1cc2c(C#N)cnc(N3CCNC(c4ccc(OCC(C)C)cc4)C3)c2cc1OC (centres unmarked) [Compound 67, 1-[3-(4-Isobutoxy-phenyl)-piperazin-1-yl]-6,7-dimethoxy-isoquinoline-4-carbonitrile] | 1100 nM | 
12 | COc1cc2c(N3CCNC(c4ccc(Br)cc4)C3)nc(C)c(C#N)c2cc1OC (centres unmarked) [Compound 37, 1-[3-(4-Bromo-phenyl)-piperazin-1-yl]-6,7-dimethoxy-3-methyl-isoquinoline-4-carbonitrile] | 2600 nM | 
13 | COc1cc2c(C#N)cnc(N3CCOC(c4ccc(Cl)cc4)C3)c2cc1OC (centres unmarked) [Compound 20, 1-[2-(4-Chloro-phenyl)-morpholin-4-yl]-6,7-dimethoxy-isoquinoline-4-carbonitrile] | 800 nM | 

More lines, in order of falling IC50 [1], values ahead:

Row | IC50 [1] | SMILES | other results
14 | 500 nM | COc1ccc(C2CN(c3ncc(C#N)c4cc(OC)c(OC)cc34)CCN2)c(C)c1 (centres unmarked) [Compound 53, 6,7-Dimethoxy-1-[3-(4-methoxy-2-methyl-phenyl)-piperazin-1-yl]-isoquinoline-4-carbonitrile] | 
15 | 350 nM | COc1cc2c(C#N)cnc(N3CCN(C)C(c4ccc(C)cc4)C3)c2cc1OC (centres unmarked) [Compound 45, 6,7-Dimethoxy-1-(4-methyl-3-p-tolyl-piperazin-1-yl)-isoquinoline-4-carbonitrile] | 
16 | 320 nM | COc1cccc(C2CN(c3ncc(C#N)c4cc(OC)c(OC)cc34)CCN2)c1 (centres unmarked) [Compound 2, 6,7-Dimethoxy-1-[3-(3-methoxy-phenyl)-piperazin-1-yl]-isoquinoline-4-carbonitrile] | 
17 | 300 nM | COc1cc2c(C#N)cnc(N3CCNC(c4ccc(C)cc4)C3)c2cc1OC (centres unmarked) [Compound 25, 6,7-Dimethoxy-1-(3-p-tolyl-piperazin-1-yl)-isoquinoline-4-carbonitrile] | 
18 | 200 nM | CCOc1ccc(C2CN(c3ncc(C#N)c4cc(OC)c(OC)cc34)CCN2)cc1 (centres unmarked) [Compound 55, 1-[3-(4-Ethoxy-phenyl)-piperazin-1-yl]-6,7-dimethoxy-isoquinoline-4-carbonitrile] | 
19 | 120 nM | COc1cc2c(C#N)cnc(N3CCNC(c4cccc([N+](=O)[O-])c4)C3)c2cc1OC (centres unmarked) [Compound 9, 6,7-Dimethoxy-1-[3-(3-nitro-phenyl)-piperazin-1-yl]-isoquinoline-4-carbonitrile] | 
20 | 80 nM | COc1cc2c(C#N)cnc(N3CCNC(c4ccc(F)cc4)C3)c2cc1OC (centres unmarked) [Compound 1, 1-[3-(4-Fluoro-phenyl)-piperazin-1-yl]-6,7-dimethoxy-isoquinoline-4-carbonitrile] | 
21 | 76 nM | COc1cc2c(C#N)cnc(N3CCNC(c4ccc(N(C)C)cc4)C3)c2cc1OC (centres unmarked) [Compound 7, 1-[3-(4-Dimethylamino-phenyl)-piperazin-1-yl]-6,7-dimethoxy-isoquinoline-4-carbonitrile] | 
22 | 73 nM | COc1cc2c(C#N)cnc(N3CCNC(c4ccc5ccccc5c4)C3)c2cc1OC (centres unmarked) [Compound 10, 6,7-Dimethoxy-1-(3-naphthalen-2-yl-piperazin-1-yl)-isoquinoline-4-carbonitrile] | 
23 | 27 nM | COc1cccc(C2CN(c3ncc(C#N)c4cc(OC)c(OC)cc34)CCN2)c1 (single isomer, unassigned; (-)) [Compound 24, (−)-6,7-Dimethoxy-1-[3-(3-methoxy-phenyl)-piperazin-1-yl]-isoquinoline-4-carbonitrile] | 
